From ChEMBL document CHEMBL1158094, “Paratunamides A-D, oxindole alkaloids from Cinnamodendron axillare” (J Nat Prod, 2006)
In brackets after ≈: the same amount, converted by molar mass.

Tested on: KB
Experiment: Cytotoxicity against human KB cells
Format: functional, cell-based

SMILES | IC50
C=C[C@H]1[C@H](O[C@@H]2O[C@H](CO)[C@@H](O)[C@H](O)[C@H]2O)OC=C2C(=O)N(CC[C@@]3(O)C(=O)Nc4ccccc43)[C@H](OC)C[C@H]21 [PARATUNAMIDE A] | > 10 µg/mL
C=C[C@H]1[C@H](O[C@@H]2O[C@H](CO)[C@@H](O)[C@H](O)[C@H]2O)OC=C2C(=O)N(CC[C@@]3(O)C(=O)Nc4ccccc43)[C@H](O)C[C@H]21 [PARATUNAMIDE D] | 6 µg/mL (≈ 10.9 µM)
C=C[C@H]1[C@H](O[C@@H]2O[C@H](CO)[C@@H](O)[C@H](O)[C@H]2O)OC=C2C(=O)N(CC[C@]3(O)C(=O)Nc4ccccc43)C(=O)C[C@H]21 [PARATUNAMIDE C] | > 10 µg/mL
C=C[C@H]1[C@H](O[C@@H]2O[C@H](CO)[C@@H](O)[C@H](O)[C@H]2O)OC=C2C(=O)N(CC[C@@]3(O)C(=O)Nc4ccccc43)C(=O)C[C@H]21 [PARATUNAMIDE B] | > 10 µg/mL
